According to patent publication US8470552B2, “Strategy to reduce lactic acid production and control PH in animal cell culture” (Keck Graduate Institute, priority 2009, dated 2013):

Experiments:
[1] = tested on: Lactate Adapted cells (DG44 CHO); test: Lactate Adapted cells continuously passaged in medium containing 0 to 40 mM lactate; assay type: cell-based, Chinese Hamster
Experimental: Unless otherwise noted, the experiments described herein were conducted with a dihydrofolate reductase deficient (DHFR^−) Chinese Hamster Ovary cell line, DG44 CHO (Invitrogen, Carlsbad, Calif.). Prior to experimentation, the cells were transfected with a pOPTI-Vec TOPO plasmid vector containing the gene for a recombinant monoclonal ScFv-Fc1 protein fragment. Transfected cells were grown in selective OptiCHO medium (Invitrogen, Carlsbad, Calif.) and the recombinant gene copy number was further amplified by supplementing the medium with 250 nM methotrexate. The amount of recombinant antibody fragment expressed was less than 10 mg/L and not subsequently measured. This cell line was used to test the feasibility of the novel approach in terms of cell growth, death, and metabolism. Cells were frozen down and hereafter referred to as “Native Control” cells. […]
Cell concentration and viability was measured by the trypan blue exclusion method using a ViCell analyzer (Beckman Coulter, Fullerton, Calif.). […] Osmolality was measured by freezing point depression on a Model 3250 Osmometer (Advanced Instruments, Norwood, Mass.) […]
Metabolic flux was calculated as specific nutrient consumption rate or specific metabolite production rate (qp) using Equations 5 and 6, where P is nutrient such as glucose or glutamine or metabolite such as lactic acid or ammonium) concentration: […]

[2] = tested on: DG44 CHO (Native Control cells); test: Native control cells grown in various levels of Na-lactate and NaCl (shaker flasks); assay type: cell-based, Chinese Hamster
Experimental: Unless otherwise noted, the experiments described herein were conducted with a dihydrofolate reductase deficient (DHFR^−) Chinese Hamster Ovary cell line, DG44 CHO (Invitrogen, Carlsbad, Calif.). Prior to experimentation, the cells were transfected with a pOPTI-Vec TOPO plasmid vector containing the gene for a recombinant monoclonal ScFv-Fc1 protein fragment. Transfected cells were grown in selective OptiCHO medium (Invitrogen, Carlsbad, Calif.) and the recombinant gene copy number was further amplified by supplementing the medium with 250 nM methotrexate. The amount of recombinant antibody fragment expressed was less than 10 mg/L and not subsequently measured. This cell line was used to test the feasibility of the novel approach in terms of cell growth, death, and metabolism. Cells were frozen down and hereafter referred to as “Native Control” cells. All subsequent experiments were performed without methotrexate.
Cell concentration and viability was measured by the trypan blue exclusion method using a ViCell analyzer (Beckman Coulter, Fullerton, Calif.). Off-line measurements were taken with a Bioprofile 400 (Nova Biomedical, Waltham, Mass.) for glucose, glutamine, lactate, carbon dioxide, oxygen, ammonium concentration and pH levels. Osmolality was measured by freezing point depression on a Model 3250 Osmometer (Advanced Instruments, Norwood, Mass.)
In the first set of experiments, illustrated in FIGS. 1-6, cultures were grown at 30 ml working volume in 125 ml shaker flasks (Corning, Lowell, Mass.) placed in an incubator at 37° C., 135 rpm, and 8% CO2. Continuous passages were performed every 3 to 4 days in duplicate shaker flasks inoculated at a seeding density of 1.0×10^6 cell/ml. After the cells were adapted to the high lactate concentration, longer-duration batch cultures were performed in triplicate shaker flasks for 12 days starting at a seeding density of 0.3×10^6 cells/ml. A sodium (D/L)-lactate stock solution (Sigma, Lowell, Mass.) was used for lactate supplementation. All reported lactate values are for the physiologically relevant L-Lactate isomer.
Specific rates were determined on a time interval bases by measuring daily viable and total cell density (VCD or TCD) and metabolite concentrations. Specific net growth rate (μN), was calculated as change in VCD over a time interval t1 to t2 using Equation 1: […]
Metabolic flux was calculated as specific nutrient consumption rate or specific metabolite production rate (qp) using Equations 5 and 6, where P is nutrient such as glucose or glutamine or metabolite such as lactic acid or ammonium) concentration:
Native control cells were grown in various levels of Na-lactate and NaCl to evaluate the impact each component had on growth and viability. Media compositions are discussed in Table 1.

CC(O)C(=O)[O-].[Na+] (stereo not shown) [Na-lactate, sodium lactate]
lactic acid production ([1]; cultures inoculated between 35 to 40 mM lactate (FIG. 3)): substantially reduced | initial lactate concentration at zero net flux of lactic acid production ([1]; predicted from FIG. 3): above 40 mM | specific lactic acid production ([2]; 27 mM lactate (FIG. 1C)): dramatic drop | specific lactic acid production ([2]; 40 mM lactate (FIG. 1C)): clear shift from production to consumption | specific total growth and death rate ([2]; non-adapted cells, Na-lactate compared with NaCl (FIG. 1B)): impacted specific total growth and death rate the most | viable cell density (VCD) ([2]; non-adapted cells, increasing lactate levels (FIG. 1A)): clear reduction

[Cl-].[Na+] [NaCl, sodium chloride, reference compound]
specific lactic acid production ([2]; NaCl supplementation (FIG. 1C)): No such effect
